Drawing on patent US9079922B2, “2-oxo-oxazolidin-3,5-diyl antibiotic derivatives” (priority 2011, dated 2015), this text covers MIC for seven molecules.

Each structure is given as a SMILES string. Values after ≈ are worked out from the molar mass of the structure shown.

Assay [1] has as its system Staphylococcus aureus A798. Nature of the assay: Bacterial growth minimal inhibitory concentration (microdilution, cation-adjusted Mueller-Hinton Broth). In kind it is cell-based. Conditions: multiply-resistant strain, in particular quinolone resistant, read-out: MIC for S. aureus A798. Here is the method:
(§1) Bacterial Growth Minimal Inhibitory Concentrations:
(§2) Minimal inhibitory concentrations (MICs; mg/l) were determined in cation-adjusted Mueller-Hinton Broth by a microdilution method following the description given in “Methods for Dilution Antimicrobial Susceptibility Tests for Bacteria that Grow Aerobically”, Approved standard, 7th ed., Clinical and Laboratory Standards Institute (CLSI) Document M7-A7, Wayne, Pa., USA, 2006.
(§3) All Example compounds were tested against several Gram positive and Gram negative bacteria. Staphylococcus aureus A798 and Acinetobacter baumanii T6474 are multiply-resistant strains, in particular quinolone resistant.
A general note: Dilution methods test growth across graded concentrations, often in twofold steps.

Assay [2] deals with Acinetobacter baumanii T6474. The assay is described as above. Conditions: Acinetobacter baumannii, multiply-resistant strain, in particular quinolone resistant. The assay is classed as cell-based. Here is the method:
as §1, §2, §3

The MIC is the lowest concentration found to suppress growth. As for `O=C1COc2ccc(N3C[C@@H](CN4CCN(c5nc6c(cc5F)c(=O)c(C(=O)O)cn6C5CC5)CC4)OC3=O)nc2N1` [Example 18, 1-cyclopropyl-6-fluoro-4-oxo-7-{4-[(R)-2-oxo-3-(3-oxo-3,4-dihydro-2H-pyrido[3,2-b][1,4]oxazin-6-yl)-oxazolidin-5-ylmethyl]-piperazin-1-yl}-1,4-dihydro-[1,8]naphthyridine-3-carboxylic acid], the MIC came to 0.031 µg/mL (≈ 0.0535 µM) in assay [1] and 0.25 µg/mL (≈ 0.431 µM) in assay [2].

With `Cn1cc(C(=O)O)c(=O)c2cc(F)c(N3CC(NC[C@@H]4CN(c5ccc6c(n5)NC(=O)CO6)C(=O)O4)C3)nc21` [Example 12, 6-fluoro-1-methyl-4-oxo-7-(3-{[(R)-2-oxo-3-(3-oxo-3,4-dihydro-2H-pyrido[3,2-b][1,4]oxazin-6-yl)-oxazolidin-5-ylmethyl]-amino}-azetidin-1-yl)-1,4-dihydro-[1,8]naphthyridine-3-carboxylic acid], the MIC in assay [1] and in assay [2] was not above 0.016 µg/mL in each case.

For `O=C1COc2ccc(N3C[C@@H](CNC4CN(c5nc6c(cc5F)c(=O)c(C(=O)O)cn6CCO)C4)OC3=O)nc2N1` [Example 15, 6-fluoro-1-(2-hydroxy-ethyl)-4-oxo-7-(3-{[(R)-2-oxo-3-(3-oxo-3,4-dihydro-2H-pyrido[3,2-b][1,4]oxazin-6-yl)-oxazolidin-5-ylmethyl]-amino}-azetidin-1-yl)-1,4-dihydro-[1,8]naphthyridine-3-carboxylic acid], the MIC in assay [1] came to 0.25 µg/mL (≈ 0.439 µM); in assay [2], 4 µg/mL (≈ 7.02 µM).

In the case of `O=C1COc2ccc(N3C[C@H](CN4CCN(c5nc6c(cc5F)c(=O)c5c(O)nsc5n6C5CC5)CC4)OC3=O)nc2N1` [Example 25, 9-cyclopropyl-6-fluoro-3-hydroxy-7-{4-[(S)-2-oxo-3-(3-oxo-3,4-dihydro-2H-pyrido[3,2-b][1,4]oxazin-6-yl)-oxazolidin-5-ylmethyl]-piperazin-1-yl}-9H-1-thia-2,8,9-triaza-cyclopenta[b]naphthalen-4-one], the MIC in assay [1] was not above 0.016 µg/mL; in assay [2], 0.125 µg/mL (≈ 0.205 µM).

Turning to `O=C(O)c1cn(C2CC2)c2cc(N3CCNCC3)c(F)cc2c1=O` [Cipro, ciprofloxacin, reference compound], the MIC in assay [1] and in assay [2] was more than 32 µg/mL in each case.

`O=C1CSc2ccc(N3C[C@@H](CNC4CN(c5nc6c(cc5F)c(=O)ccn6C5CC5)C4)OC3=O)cc2N1` [Example 5, 6-((R)-5-{[1-(8-cyclopropyl-3-fluoro-5-oxo-5,8-dihydro-[1,8]naphthyridin-2-yl)-azetidin-3-ylamino]-methyl}-2-oxo-oxazolidin-3-yl)-4H-benzo[1,4]thiazin-3-one]: the MIC in assay [1] was not above 0.016 µg/mL; in assay [2], 1 µg/mL (≈ 1.86 µM).

For the molecule `O=C1CSc2ccc(N3C[C@@H](CNC4CN(c5nc6c(cc5F)c(=O)c(C(=O)O)cn6C5CC5)C4)OC3=O)cc2N1` [Example 2, 1-cyclopropyl-6-fluoro-4-oxo-7-(3-{[(R)-2-oxo-3-(3-oxo-3,4-dihydro-2H-benzo[1,4]thiazin-6-yl)-oxazolidin-5-ylmethyl]-amino}-azetidin-1-yl)-1,4-dihydro-[1,8]naphthyridine-3-carboxylic acid], the MIC was not above 0.016 µg/mL in assay [1] and 0.125 µg/mL (≈ 0.215 µM) in assay [2].
